What all share (assay): HDAC Enzyme Activity Assay
One experiment addresses Histone deacetylase 4 (Homo sapiens, UniProt P56524). The protocol: (§1) For the enzyme assay, 10 µL of the enzyme fraction was added to 1 µL of fluorescent substrate (2 mM Ac-KGLGK(Ac)-MCA) and 9 µL of histone deacetylase buffer, and the mixture was incubated at 37 °C for 30 min. The reaction was stopped by the addition of 30 µL of trypsin (20 mg/mL) and incubated at 37 °C for 15 min. The released amino methyl coumarin (AMC) was measured using a fluorescence plate reader. DTT was added simultaneously with drugs to the enzyme solutions

Another experiment deals with T1, Histone deacetylase 6 (Mus musculus, UniProt Q9Z2V5).
T1 sequence (Q9Z2V5 whole entry): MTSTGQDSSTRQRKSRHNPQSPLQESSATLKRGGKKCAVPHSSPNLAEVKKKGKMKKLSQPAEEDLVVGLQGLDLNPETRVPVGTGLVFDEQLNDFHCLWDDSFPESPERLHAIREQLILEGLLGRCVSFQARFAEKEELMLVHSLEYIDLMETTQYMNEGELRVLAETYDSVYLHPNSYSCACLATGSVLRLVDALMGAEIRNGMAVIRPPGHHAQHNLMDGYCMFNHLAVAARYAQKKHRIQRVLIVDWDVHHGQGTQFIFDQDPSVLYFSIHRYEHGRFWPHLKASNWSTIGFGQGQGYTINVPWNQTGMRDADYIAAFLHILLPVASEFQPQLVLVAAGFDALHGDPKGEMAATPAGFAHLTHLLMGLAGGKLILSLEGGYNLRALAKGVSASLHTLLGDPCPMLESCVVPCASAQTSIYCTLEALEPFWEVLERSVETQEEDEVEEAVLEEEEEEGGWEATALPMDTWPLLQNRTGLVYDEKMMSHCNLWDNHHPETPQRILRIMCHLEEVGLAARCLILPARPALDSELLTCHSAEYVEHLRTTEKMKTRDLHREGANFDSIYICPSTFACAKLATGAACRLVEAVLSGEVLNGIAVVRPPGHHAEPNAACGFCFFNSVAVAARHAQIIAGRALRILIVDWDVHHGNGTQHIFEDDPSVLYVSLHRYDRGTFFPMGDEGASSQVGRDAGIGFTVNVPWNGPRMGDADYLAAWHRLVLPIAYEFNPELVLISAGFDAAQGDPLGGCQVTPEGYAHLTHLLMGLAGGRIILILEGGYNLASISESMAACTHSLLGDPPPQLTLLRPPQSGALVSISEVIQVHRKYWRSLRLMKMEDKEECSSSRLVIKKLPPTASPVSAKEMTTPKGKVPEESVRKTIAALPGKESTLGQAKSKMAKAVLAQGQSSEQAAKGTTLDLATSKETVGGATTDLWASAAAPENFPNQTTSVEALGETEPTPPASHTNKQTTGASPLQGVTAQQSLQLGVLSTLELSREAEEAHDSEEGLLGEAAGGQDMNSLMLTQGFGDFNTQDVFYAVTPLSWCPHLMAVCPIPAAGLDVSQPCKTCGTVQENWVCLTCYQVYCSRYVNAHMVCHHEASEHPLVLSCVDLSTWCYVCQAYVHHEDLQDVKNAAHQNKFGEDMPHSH
Here is the method: as §1

The next experiment addresses Histone deacetylase 1 (Homo sapiens, UniProt Q13547). Here is the method:
as §1

Sequence of Histone deacetylase 1 (Q13547 whole entry): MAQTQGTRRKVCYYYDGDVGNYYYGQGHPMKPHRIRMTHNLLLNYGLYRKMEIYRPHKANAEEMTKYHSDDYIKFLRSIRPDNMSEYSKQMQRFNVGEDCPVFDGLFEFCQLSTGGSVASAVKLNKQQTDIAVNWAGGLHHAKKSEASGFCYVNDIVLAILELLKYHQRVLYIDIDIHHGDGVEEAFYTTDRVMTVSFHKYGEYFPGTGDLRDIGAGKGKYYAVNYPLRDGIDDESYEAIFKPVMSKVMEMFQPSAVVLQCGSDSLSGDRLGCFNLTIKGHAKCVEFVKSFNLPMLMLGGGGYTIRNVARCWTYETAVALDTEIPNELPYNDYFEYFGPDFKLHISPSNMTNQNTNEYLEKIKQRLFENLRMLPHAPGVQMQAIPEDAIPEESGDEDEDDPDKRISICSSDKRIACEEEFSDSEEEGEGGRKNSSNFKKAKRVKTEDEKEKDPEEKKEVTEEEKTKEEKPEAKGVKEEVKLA
Sequence of Histone deacetylase 4 (P56524 whole entry): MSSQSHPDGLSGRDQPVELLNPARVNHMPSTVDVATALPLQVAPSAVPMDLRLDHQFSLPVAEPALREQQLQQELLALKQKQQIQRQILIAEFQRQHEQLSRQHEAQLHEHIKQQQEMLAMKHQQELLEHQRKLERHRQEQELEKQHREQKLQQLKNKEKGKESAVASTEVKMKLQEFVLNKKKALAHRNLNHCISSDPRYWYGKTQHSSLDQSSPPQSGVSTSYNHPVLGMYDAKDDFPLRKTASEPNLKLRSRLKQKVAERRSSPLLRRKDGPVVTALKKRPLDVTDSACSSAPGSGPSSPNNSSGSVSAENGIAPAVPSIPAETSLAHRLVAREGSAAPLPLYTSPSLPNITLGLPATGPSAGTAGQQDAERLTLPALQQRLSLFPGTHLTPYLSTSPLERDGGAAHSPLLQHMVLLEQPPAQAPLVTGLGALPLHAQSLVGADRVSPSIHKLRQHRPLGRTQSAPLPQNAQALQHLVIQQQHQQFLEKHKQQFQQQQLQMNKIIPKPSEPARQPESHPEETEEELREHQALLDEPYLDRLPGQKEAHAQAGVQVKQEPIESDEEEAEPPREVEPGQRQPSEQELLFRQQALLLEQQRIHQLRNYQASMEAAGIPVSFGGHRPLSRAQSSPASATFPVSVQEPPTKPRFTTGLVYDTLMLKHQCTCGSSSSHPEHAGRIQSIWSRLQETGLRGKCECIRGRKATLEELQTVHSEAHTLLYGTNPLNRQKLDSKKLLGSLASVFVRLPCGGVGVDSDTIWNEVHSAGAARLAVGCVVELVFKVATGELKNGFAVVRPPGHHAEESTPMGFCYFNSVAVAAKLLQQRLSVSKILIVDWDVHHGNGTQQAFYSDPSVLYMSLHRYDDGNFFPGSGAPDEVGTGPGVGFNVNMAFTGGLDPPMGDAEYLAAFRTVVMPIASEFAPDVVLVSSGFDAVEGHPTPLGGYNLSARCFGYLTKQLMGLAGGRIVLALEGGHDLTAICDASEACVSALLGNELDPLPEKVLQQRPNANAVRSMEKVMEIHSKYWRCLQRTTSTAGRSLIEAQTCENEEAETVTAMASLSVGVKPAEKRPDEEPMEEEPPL

Usually IC50 stands for the concentration that inhibits the measured activity by half. Consider `O=C(CCCCC[C@H](NC(=O)OCc1ccccc1)C(=O)Nc1cccc2cccnc12)NO` [(S)-benzyl 8-(hydroxyamino)-1,8-dioxo-1-(quinolin-8-ylamino)octan-2-ylcarbamate], for which the values for the IC50 at Histone deacetylase 4, against Histone deacetylase 6 and against Histone deacetylase 1 were 11 nM, 45 nM and 10 nM, respectively.

As for `O=C(NC(CCCCCSSCCCCC[C@H](NC(=O)OCc1ccccc1)C(=O)Nc1cccc2cccnc12)C(=O)Nc1cccc2cccnc12)OCc1ccccc1` (stereo partly drawn) [(Z-L-Am7(S-)-QA)2 (4)], the IC50 on Histone deacetylase 4 came to 3.4 nM; against Histone deacetylase 6 it was 7.5 nM; against Histone deacetylase 1, 8.2 nM.

As for `CC(=O)SCCCCC[C@H](NC(=O)OCc1ccccc1)C(=O)Nc1cccc2cccnc12` [Z-L-Am7(Ac)-QA (1)], the 50% inhibitory concentration (IC50) is 18 nM at Histone deacetylase 4, 34 nM on Histone deacetylase 6 and 47 nM at Histone deacetylase 1.

`COCCOCC(=O)SCCCCC[C@H](NC(=O)OCc1ccccc1)C(=O)Nc1cccc2cccnc12` [Z-L-Am7(AcEtMe)-QA (2)]: the IC50 against Histone deacetylase 4 stood at 18 nM; against Histone deacetylase 6, 29 nM; at Histone deacetylase 1, 19 nM.

With `O=C(N[C@@H](CCCCCSSCCO)C(=O)Nc1cccc2cccnc12)OCc1ccccc1` [Z-L-Am7(betaMe)-QA (3)], the 50% inhibitory concentration (IC50) was determined as 2 nM at Histone deacetylase 4, 3.2 nM against Histone deacetylase 6 and 4.9 nM against Histone deacetylase 1.

The values above are taken from BindingDB's records for doi:10.1016/j.bioorg.2015.02.009 (Kyushu Institute of Technology, 2015).
